For this assay, the target named is T1, AKR1C1 (Homo sapiens, UniProt Q04828).
T1 sequence (Q04828 1-323): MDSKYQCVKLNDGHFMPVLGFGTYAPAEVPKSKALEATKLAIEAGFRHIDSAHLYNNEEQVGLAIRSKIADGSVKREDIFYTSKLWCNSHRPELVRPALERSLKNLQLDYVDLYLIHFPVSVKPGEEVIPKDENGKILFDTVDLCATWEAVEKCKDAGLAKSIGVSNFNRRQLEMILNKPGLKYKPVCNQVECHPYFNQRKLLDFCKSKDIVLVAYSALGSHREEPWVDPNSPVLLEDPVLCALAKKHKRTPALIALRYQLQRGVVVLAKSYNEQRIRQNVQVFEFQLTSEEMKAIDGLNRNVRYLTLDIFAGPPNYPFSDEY
In words: Enzyme activity (NADPH) assay with s-tetralol, recombinant GST-AKR1C1.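 For all read-outs here: GST-fused AKR1C1 expressed in E. coli and purified by glutathione affinity, control wells received DMSO instead of compound, duplicate samples from a single experiment.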 The conditions noted are these: for enzyme activity: CON 192.295568; for inhibition at 2 µM: read-out: % inhibition. Also noted: made in house; host or cells: Escherichia coli JM109. Type of assay: biochemical.

[1] abbreviates: 2 μM compound, Supplementary Table 1, CON 0.0122.
The mark [2] stands for this setting: 2 μM compound, Supplementary Table 1.
Setting [3] is: 2 μM compound, Supplementary Table 1, CON = 1, read-out: ratio (activity relative to CON).
Setting [4] is: 2 μM compound, Supplementary Table 1, CON = 1.

Where two headings read alike, the source gives them in different places.

The values below come from article PMC6616128, “Liquiritin, as a Natural Inhibitor of AKR1C1, Could Interfere With the Progesterone Metabolism” (Frontiers in Physiology, 2019).

Method: GST-tagged recombinant AKR1C isoforms expressed JM109 was grown in Luria-Bertani broth (100 μg⋅ml-1 ampicillin, pH = 7.0) at 37°C with orbital shaking at 220 rpm. When cells achieved an OD600 nm between 0.4 and 0.6, 0.3 mM final concentration of isopropyl β-D-1-thiogalactopyranoside (IPTG) was added to the cultures and incubated for an additional 12 h at 25°C. Cells were harvested by centrifugation at 8000 g for 10 min, and the cell pellets were stored at -80°C for storage. The pellets were resuspended in 1 × PBS, pH = 7.4 and lysed by ultrasonication at ice-cold temperature using an UH-03 union instrument. The purification of glutathione-S-transferase (GST)-fusion AKR1C1, AKR1C2, and AKR1C3 were then carried out using ÄKTA systems from GE Healthcare as described in Handbook. The recombinant proteins were eluted in 50 mM Tris–HCl (pH = 8.0) with 20 mM reduced glutathione, fresh preparedly. Protein concentrations were determined using the Bradford protein assay kit. All proteins were aliquoted and stored at -80°C containing 20% glycerol.
To screen for the indicated inhibitor, the assay mixture was added with additional DMSO or 2 μM compounds. […] The inhibition patterns were determined by fitting initial velocity and inhibitor concentration into inhibition models using Graphpad Prism 6.0. All inhibition data were obtained from single experiments, with samples conducted in duplicate.
Firstly, we overexpressed recombinant human AKR1C in E. coli in the form of a GST-fusion protein, and then purified it by affinity chromatography on glutathione-Sepharose.
To screen for the inhibitors of AKR1C1, we developed a readily accessible indirect NADPH generating-based assay that can be used for high-throughput inhibitors screening. […] Wells were included containing enzyme and no inhibitor or 2 μM inhibitor.

Usually inhibition stands for the drop in the measured response relative to a control, in per cent. Turning to `O=c1c(O[C@@H]2O[C@H](CO)[C@H](O)[C@H](O)[C@H]2O)c(-c2ccc(O)c(O)c2)oc2cc(O)cc(O)c12` [Hyperoside], the slope under setting [1] is 0.0123. In addition, under setting [2], the enzyme activity is listed as 193.4665 nmol/min/mg and the inhibition at 2 µM was -0.61%. The remaining activity at 2 µM under setting [3] came to 101%.
What is called % inhibition is the change of the read-out against control, counted positive when it falls. Turning to `C=C1C(=O)O[C@@H]2/C=C(\C)CC/C=C(\C)CC[C@@H]12` [Costundide], under setting [2], the “% inhibition” value is 40.47% and the enzyme activity came out at 114.4767 nmol/min/mg. Moreover, the slope under setting [1] is 0.007263. Also, the “ratio (activity relative to CON)” value under setting [4] was found to be 0.5953.
As for `COc1ccc2cc1Oc1ccc(cc1)C[C@H]1c3cc(c(OC)cc3CCN1C)Oc1c(O)c(OC)cc3c1[C@H](C2)N(C)CC3` [Fangchinoline], the slope under setting [1] was found to be 0.0139. Besides, under setting [2], the enzyme activity was 219.4962 nmol/min/mg and the inhibition at 2 µM was -14.2%. Under setting [3], the remaining activity at 2 µM stood at 114%.
In the same order, the values of `O=c1c(-c2ccc(O)cc2)coc2cc(O)ccc12` [Daidzein] are 0.007957, 125.4199 nmol/min/mg, 34.8% and 65.2%.
In the same order, the values of `COc1cc(C[C@H]2C(=O)OC[C@@H]2Cc2ccc(OC)c(OC)c2)ccc1O` [Arctigenin] are 0.0129, 203.0137 nmol/min/mg, -5.57% and 106%.
Taken in the same sequence, the figures for `O=c1c2cc(O)c(O)cc2oc2cc(O)c([C@@H]3O[C@H](CO)[C@@H](O)[C@H](O)[C@H]3O)c(O)c12` [Mangiferin] were 0.009429, 148.6125 nmol/min/mg, 22.7% and 77.3%.
On to `CC1(C)C=Cc2c(ccc3c2OC[C@@H](c2ccc(O)cc2O)C3)O1` [Glabridin], for which the slope under setting [1] is recorded as 0.0136. Moreover, under setting [2], the enzyme activity is on record as 215.1279 nmol/min/mg and the inhibition at 2 µM is -11.9%. In addition, under setting [3], the remaining activity at 2 µM came out at 112%.
For `C[C@H]1CC[C@@H]2N(C1)C[C@H]1[C@@H]3C[C@H]4[C@@H](C[C@H](O)[C@H]5C[C@@H](O)CC[C@@]54C)[C@@H]3CC[C@@H]1[C@]2(C)O` [Peimine], under setting [2], the “% inhibition” value was 4.66% and the enzyme activity stood at 183.3338 nmol/min/mg. In addition, the slope under setting [1] came to 0.0116. Besides, the “ratio (activity relative to CON)” value under setting [4] turned out to be 0.9534.
In the same order, the values of `COc1c2c(cc3oc(CO[C@@H]4O[C@H](CO)[C@@H](O)[C@H](O)[C@H]4O)cc(=O)c13)O[C@H](C(C)(C)O)C2` [Prim-O-glucosylcimifugin] are -1.55%, 195.2678 nmol/min/mg, 0.0124 and 1.0155.
Taken in the same sequence, the figures for `COc1cc2c(=O)c(-c3ccc(O)cc3)coc2cc1O[C@@H]1O[C@H](CO)[C@@H](O)[C@H](O)[C@H]1O` [Glycitin] were 64.26%, 68.722 nmol/min/mg, 0.00436 and 0.3574.
In the case of `O=C(O[C@@H]1Cc2c(O)cc(O)cc2O[C@@H]1c1cc(O)c(O)c(O)c1)c1cc(O)c(O)c(O)c1` [(−)-Epigallocatechin gallate], under setting [1], the slope was found to be 0.0121. Besides, under setting [2], the enzyme activity was determined as 191.3949 nmol/min/mg and the inhibition at 2 µM was 0.47%. Under setting [3], the remaining activity at 2 µM was found to be 99.5%.
In the same order, the values of `COc1ccc2c(c1)CC=C(CO)c1cc3c(cc1-2)OCO3` [Tenuifolin] are 0.007214, 113.7111 nmol/min/mg, 40.9% and 59.1%.
On to `COc1c(O)cc(O)c2c(=O)cc(-c3ccccc3)oc12` [Wogonin], for which the remaining activity at 2 µM was 22.3% (2 μM compound, Figure 1A, read-out: % Enzyme Activity); 22.3% under setting [3]; 22.3% (2 μM compound, text on Figure 1A, read-out: inhibitory effect over AKR1C1 enzyme activity (% inhibition)). Moreover, the slope under setting [1] turned out to be 0.00272. Further, the enzyme activity under setting [2] was found to be 42.8725 nmol/min/mg. Moreover, the inhibition at 2 µM under setting [2] is 77.7%.
Regarding `C[C@H]1O[C@@H](O[C@H]2CC[C@@]3(C)[C@@H](CC[C@]4(C)[C@@H]3C=C[C@]35OC[C@@]6(CCC(C)(C)C[C@H]63)[C@@H](O)C[C@]54C)[C@]2(C)CO)[C@H](O)[C@@H](O[C@@H]2O[C@H](CO)[C@@H](O)[C@H](O)[C@H]2O)[C@H]1O` [Saikosaponin A], the slope under setting [1] amounted to 0.0115. Under setting [2], the enzyme activity came to 181.6675 nmol/min/mg and the inhibition at 2 µM was found to be 5.53%. Besides, the remaining activity at 2 µM under setting [3] stood at 94.5%.
Take `CC1(C)O[C@H]1COc1c2ccoc2cc2oc(=O)ccc12` [Oxypeucedanin]: under setting [1], the slope is given as 0.0122. Under setting [2], the enzyme activity was 192.3856 nmol/min/mg and the inhibition at 2 µM is -0.05%. In addition, under setting [3], the remaining activity at 2 µM was 100%.
Take `COc1c(O[C@@H]2O[C@H](C(=O)O)[C@@H](O)[C@H](O)[C@H]2O)cc(O)c2c(=O)cc(-c3ccccc3)oc12` [Wogonoside]: under setting [2], the “% inhibition” value is -8.88% and the enzyme activity is 209.3635 nmol/min/mg. Moreover, the slope under setting [1] is given as 0.0133. Also, under setting [4], the “ratio (activity relative to CON)” value worked out at 1.0888.
On to `O=c1ccc2cc3ccoc3cc2o1` [Psoralen], for which the slope under setting [1] is 0.0116. Under setting [2], the enzyme activity is 182.8834 nmol/min/mg and the inhibition at 2 µM was found to be 4.89%. Besides, the remaining activity at 2 µM under setting [3] worked out at 95.1%.
On to `COc1cc2c(cc1O)CC[n+]1cc3c(OC)c(OC)ccc3cc1-2.[Cl-]` [Jatrorrhizine Hydrochloride], for which, under setting [2], the “% inhibition” value is -4.38% and the enzyme activity turned out to be 200.7169 nmol/min/mg. Moreover, the slope under setting [1] came to 0.0127. For the same compound, the “ratio (activity relative to CON)” value under setting [4] worked out at 1.0438.
On to `O=c1c(-c2ccc(O)cc2)coc2cc(O[C@@H]3O[C@H](CO)[C@@H](O)[C@H](O)[C@H]3O)cc(O)c12` [Genistin], for which the slope under setting [1] turned out to be 0.0129. Further, under setting [2], the enzyme activity is recorded as 203.1488 nmol/min/mg and the inhibition at 2 µM was -5.64%. In addition, under setting [3], the remaining activity at 2 µM amounted to 106%.
In the same order, the values of `Oc1cc(O)c2c(c1)O[C@H](c1cc(O)c(O)c(O)c1)[C@H](O)C2` [Epigallocatechin] are 0.0131, 206.6164 nmol/min/mg, -7.45% and 107%.
Regarding `C[C@H]1O[C@@H](O[C@H]2CC[C@@]3(C)[C@@H](CC[C@]4(C)[C@@H]3C=C[C@]35OC[C@@]6(CCC(C)(C)C[C@H]63)[C@H](O)C[C@]54C)[C@]2(C)CO)[C@H](O)[C@@H](O[C@@H]2O[C@H](CO)[C@@H](O)[C@H](O)[C@H]2O)[C@H]1O` [Saikosaponin D], under setting [2], the “% inhibition” value was determined as 5.41% and the enzyme activity worked out at 181.8927 nmol/min/mg. For the same compound, under setting [1], the slope came out at 0.0115. The “ratio (activity relative to CON)” value under setting [4] is 0.9459.
In the same order, the values of `O=C([O-])C(O)Cc1ccc(O)c(O)c1.[Na+]` (stereo not shown) [Sodium Danshensu] are 14%, 165.3652 nmol/min/mg, 0.0105 and 0.86.
As for `C[C@@H]1CC[C@@]2(OC1)O[C@H]1C[C@H]3[C@@H]4CC=C5C[C@@H](O[C@@H]6O[C@H](CO)[C@@H](O[C@@H]7O[C@@H](C)[C@H](O)[C@@H](O)[C@H]7O)[C@H](O)[C@H]6O[C@@H]6O[C@@H](C)[C@H](O)[C@@H](O)[C@H]6O)CC[C@]5(C)[C@H]4CC[C@]3(C)[C@H]1[C@@H]2C` [Dioscin], the slope under setting [1] is 0.0134. Further, under setting [2], the enzyme activity was found to be 211.8854 nmol/min/mg and the inhibition at 2 µM is -10.2%. Also, under setting [3], the remaining activity at 2 µM was determined as 110%.
Ginkgolide C: under setting [2], the “% inhibition” value is recorded as 31.9% and the enzyme activity was found to be 130.9591 nmol/min/mg. The slope under setting [1] worked out at 0.008309. Also, under setting [4], the “ratio (activity relative to CON)” value is recorded as 0.681.
Consider Pseuginsenoside F11, for which, under setting [2], the “% inhibition” value stood at 4.75% and the enzyme activity was found to be 183.1536 nmol/min/mg. Further, under setting [1], the slope was 0.0116. In addition, the “ratio (activity relative to CON)” value under setting [4] is 0.9525.
As for Schisantherin A, under setting [2], the “% inhibition” value was -8.57% and the enzyme activity worked out at 208.778 nmol/min/mg. In addition, the slope under setting [1] was determined as 0.0132. Also, the “ratio (activity relative to CON)” value under setting [4] is recorded as 1.0857.
For Hydroxysafflor yellow A, the slope was found to be 0.008806. Also, under setting [2], the “% inhibition” value stood at 27.82% and the enzyme activity is 138.7951 nmol/min/mg. Besides, the “ratio (activity relative to CON)” value under setting [4] turned out to be 0.7218.
With `COc1cc(/C=C/C(=O)CC(=O)/C=C/c2ccc(O)c(OC)c2)ccc1O` [Curcumin], the slope under setting [1] was found to be 0.006283. Besides, under setting [2], the enzyme activity turned out to be 99.03 nmol/min/mg and the inhibition at 2 µM came out at 48.5%. Moreover, the remaining activity at 2 µM under setting [3] turned out to be 51.5%.
Turning to `COc1cc2c(c(OC)c1OC)-c1c(cc3c(c1OC)OCO3)CC(C)C(C)C2` (stereo not shown) [Schizandrin B], under setting [2], the “% inhibition” value is -23.91% and the enzyme activity was determined as 238.2754 nmol/min/mg. For the same compound, the slope under setting [1] is on record as 0.0151. The “ratio (activity relative to CON)” value under setting [4] turned out to be 1.2391.
